Data on 11 compounds can be found in patent publication US8791148B2, “Substituted benzimidazolone derivatives, medicaments comprising them and their use” (AbbVie Deutschland GmbH & Co. KG, priority 2006, dated 2014).

The experiment deals with T1, human vasopressin V1b receptor (Homo sapiens, UniProt P47901).
T1 construct: expressed in transfected cells; host or cells: CHO-K1 (cell line hV1b-3H2_CHO), membrane preparation
T1 sequence (P47901 1-424): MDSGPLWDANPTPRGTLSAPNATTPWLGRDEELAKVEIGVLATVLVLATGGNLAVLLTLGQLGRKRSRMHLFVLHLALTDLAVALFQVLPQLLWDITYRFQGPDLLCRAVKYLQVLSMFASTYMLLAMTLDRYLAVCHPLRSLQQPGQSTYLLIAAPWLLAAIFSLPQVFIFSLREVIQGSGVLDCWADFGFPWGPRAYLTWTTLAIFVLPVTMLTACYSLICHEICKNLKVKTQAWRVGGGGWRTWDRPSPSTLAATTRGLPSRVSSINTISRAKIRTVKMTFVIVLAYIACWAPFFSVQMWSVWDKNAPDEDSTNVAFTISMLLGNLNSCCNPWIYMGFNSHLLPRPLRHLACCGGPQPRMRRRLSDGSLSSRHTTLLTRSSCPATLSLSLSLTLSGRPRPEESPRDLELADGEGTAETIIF
As to the kind of experiment: Vasopressin V1b receptor binding assay. The conditions noted are these: membranes from CHO-K1 cells with stably expressed human V1b receptors; displacement of 1.5 nM 3H-AVP; read-out: V1b receptor affinity (affinity constant Ki). The essentials:
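Ki values come from nonlinear regression of triplicate scintillation counts after filtration. Test compound (2% DMSO in the mixture) and radioligand were incubated 60 min at room temperature with human V1b membranes in pH 7.4 Tris buffer with 10 mM MgCl2 and 0.1% BSA. Nonspecific binding was set with 1 uM AVP.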

As to `COc1ccc(S(=O)(=O)n2c(=O)n(C(C(=O)NCCCCN(C)C)c3ccccc3)c3cc(Cl)ccc32)cc1` (centres unmarked) [Example 124, 2-[6-Chloro-3-(4-methoxybenzenesulfonyl)-2-oxo-2,3-dihydrobenzimidazol-1-yl]—N-(4-dimethylaminobutyl)-2-phenylacetamide], the Ki (as a rule, the dissociation constant of the complex between target and ligand, obtained from inhibition or displacement) was 0.1 to 0.5 µM.

Take `COc1ccc(S(=O)(=O)n2c(=O)n(C(C(=O)NCCCN3CCCC3=O)c3ccccc3)c3cc(Cl)ccc32)cc1` (centres unmarked) [Example 125, 2-[6-Chloro-3-(4-methoxybenzenesulfonyl)-2-oxo-2,3-dihydrobenzimidazol-1-yl]-N-[3-(2-oxopyrrolidin-1-yl)propyl]-2-phenylacetamide]: the Ki fell in the range of 0.5 to 10 µM.

On to `COc1ccc(S(=O)(=O)n2c(=O)n(C(C(=O)N3CCCN(C)CC3)c3ccccc3)c3cc(Cl)ccc32)cc1` (centres unmarked) [Example 126, 5-Chloro-1-(4-methoxybenzenesulfonyl)-3-[2-(4-methyl-[1,4]diazepan-1-yl)-2-oxo-1-phenylethyl]-1,3-dihydrobenzoimidazol-2-one], for which the Ki was 0.1 to 0.5 µM.

Consider `COc1ccc(S(=O)(=O)n2c(=O)n(C(C(=O)N3CCN(C4CCN(C(=O)OC(C)(C)C)CC4)CC3)c3ccccc3)c3cc(Cl)ccc32)cc1` (centres unmarked) [Example 127, tert-Butyl 4-(4-{2-[6-chloro-3-(4-methoxybenzenesulfonyl)-2-oxo-2,3-dihydrobenzimidazol-1-yl]-2-phenylacetyl}piperazin-1-yl)piperidin-1-carboxylate], for which the Ki was in the range of 0.5 to 10 µM.

For the compound `CCCN1CCC(N2CCN(C(=O)C(c3ccccc3)n3c(=O)n(S(=O)(=O)c4ccc(OC)cc4)c4ccc(Cl)cc43)CC2)CC1` (centres unmarked) [Example 129, 5-Chloro-1-(4-methoxybenzenesulfonyl)-3-{2-oxo-1-phenyl-2-[4-(1-propylpiperidin-4-yl)piperazin-1-yl]ethyl}-1,3-dihydrobenzimidazol-2-one], the Ki lay in the range of 0.1 to 0.5 µM.

For the compound `COc1ccc(S(=O)(=O)n2c(=O)n(C(C(=O)NCCN3CCN(C(=O)OC(C)(C)C)CC3)c3ccccc3)c3cc(Cl)ccc32)cc1` (centres unmarked) [Example 130, tert-Butyl 4-(2-{2-[6-chloro-3-(4-methoxybenzenesulfonyl)-2-oxo-2,3-dihydrobenzimidazol-1-yl]-2-phenylacetylamino}ethyl)piperazine-1-carboxylate], the Ki was 0.5 to 10 µM.

As for `COc1ccc(S(=O)(=O)n2c(=O)n(C(C(=O)NCCN3CCNCC3)c3ccccc3)c3cc(Cl)ccc32)cc1` (centres unmarked) [Example 131, 2-[6-Chloro-3-(4-methoxybenzenesulfonyl)-2-oxo-2,3-dihydrobenzimidazol-1-yl]-2-phenyl-N-(2-piperazin-1-ylethyl)acetamide], the Ki lay within 0.1 to 0.5 µM.

As for `CCCN1CCN(CCNC(=O)C(c2ccccc2)n2c(=O)n(S(=O)(=O)c3ccc(OC)cc3)c3ccc(Cl)cc32)CC1` (centres unmarked) [Example 133, 2-[6-Chloro-3-(4-methoxybenzenesulfonyl)-2-oxo-2,3-dihydrobenzimidazol-1-yl]-2-phenyl-N-[2-(4-propylpiperazin-1-yl)-ethyl]-acetamide], the Ki is 0.1 to 0.5 µM.

As to `COc1ccc(S(=O)(=O)n2c(=O)n(C(C(=O)NCCCN3CCNCC3)c3ccccc3)c3cc(Cl)ccc32)cc1` (centres unmarked) [Example 135, 2-[6-Chloro-3-(4-methoxybenzenesulfonyl)-2-oxo-2,3-dihydrobenzimidazol-1-yl] 2-phenyl-N-(3-piperazin-1-ylpropyl)acetamide], the Ki lay in the range of 0.1 to 0.5 µM.

As to `CCCN1CCN(CCCNC(=O)C(c2ccccc2)n2c(=O)n(S(=O)(=O)c3ccc(OC)cc3)c3ccc(Cl)cc32)CC1` (centres unmarked) [Example 136, 2-[6-Chloro-3-(4-methoxybenzenesulfonyl)-2-oxo-2,3-dihydrobenzimidazol-1-yl]-2-phenyl-N-[3-(4-propylpiperazin-1-yl)propyl]-acetamide], the Ki lay within 0.1 to 0.5 µM.

As for `COc1ccc(S(=O)(=O)n2c(=O)n(C(C(=O)NCCCN3CCN(C)CC3)c3ccccc3)c3cc(Cl)ccc32)cc1` (centres unmarked) [Example 137, 2-[6-Chloro-3-(4-methoxybenzenesulfonyl)-2-oxo-2,3-dihydrobenzimidazol-1-yl]-N-[3-(4-methylpiperazin-1-yl)propyl]-2-phenyl-acetamide], the Ki was in the range of 0.1 to 0.5 µM.
